According to US12091411B2, “IRAK degraders and uses thereof” (Kymera Therapeutics, Inc., priority 2022, dated 2024):
Where two headings read alike, the source gives them in different places.

Target: T1, IRAK4 (Homo sapiens, UniProt Q9NWZ3)
T1 construct: Degradation of IRAK4 in OCI-LY10 was quantitatively measured using Meso Scale Discovery technology; endogenous in cells; host or cells: OCI-LY10
T1 sequence (Q9NWZ3 1-460): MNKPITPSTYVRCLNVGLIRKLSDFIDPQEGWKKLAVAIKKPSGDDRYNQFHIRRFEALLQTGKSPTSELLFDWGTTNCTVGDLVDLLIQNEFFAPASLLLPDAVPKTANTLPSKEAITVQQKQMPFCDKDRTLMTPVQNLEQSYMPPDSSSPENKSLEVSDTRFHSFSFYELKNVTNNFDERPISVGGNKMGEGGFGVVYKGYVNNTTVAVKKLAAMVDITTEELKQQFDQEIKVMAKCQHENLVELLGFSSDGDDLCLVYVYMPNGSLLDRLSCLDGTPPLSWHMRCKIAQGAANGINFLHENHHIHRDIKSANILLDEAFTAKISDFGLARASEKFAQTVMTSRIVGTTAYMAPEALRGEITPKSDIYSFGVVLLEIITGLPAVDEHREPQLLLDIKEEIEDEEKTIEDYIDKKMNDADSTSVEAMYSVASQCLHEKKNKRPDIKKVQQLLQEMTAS
Test: IRAK4 MSD Degradation in OCI-LY10
Type: cell-based
Conditions: OCI-LY10 cells, MSD
In short: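 OCI-LY10 cells exposed to 8-point 1:3 compound series (top 1 to 10 μM) for 4 to 24 h at 37 °C, 5% CO2. Lysate IRAK4 quantified by MSD sandwich immunoassay. DC50 from three-parameter logistic fit, binned A (<0.01 μM) to D (>0.2 μM or not tested).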

[1] = 4 hrs incubation, read-out: IRAK4 degradation in OCI-LY10 at 4 hrs: DC50
[2] = 24 hrs incubation, read-out: IRAK4 degradation in OCI-LY10 at 24 hrs: DC50

Row | SMILES | DC50 [1] | DC50 [2]
1 | Cn1c(=O)n(C2CCC(=O)NC2=O)c2cccc(CN3CCN(C[C@H]4CC[C@H](n5cc(NC(=O)c6cnn7cccnc67)c(C(F)F)n5)CC4)CC3)c21 (some centres unmarked) [I-238] | > 200 nM | > 200 nM
2 | Cn1c(=O)n(C2CCC(=O)NC2=O)c2cccc(C#CCCC3CCN(CC4CCC(n5cc(NC(=O)c6cnn7ccc(C8C[C@H]9C[C@@H]8CO9)nc67)c(C(F)F)n5)CC4)CC3)c21 (some centres unmarked) [I-160] | < 10 nM | < 10 nM
3 | Cn1c(=O)n(C2CCC(=O)NC2=O)c2cccc(C#CCOC3CCN(C[C@H]4CC[C@H](n5cc(NC(=O)c6cnn7ccc(N8CCSCC8)nc67)c(C(F)F)n5)CC4)CC3)c21 (some centres unmarked) [I-303] | > 200 nM | < 10 nM
4 | Cn1c(=O)n(C2CCC(=O)NC2=O)c2cccc(N3CCC(CO[C@H]4CC[C@H](n5cc(NC(=O)c6cnn7cccnc67)c(C(F)F)n5)CC4)CC3)c21 (some centres unmarked) [I-239] | > 200 nM | > 200 nM
5 | Cn1c(=O)n(C2CCC(=O)NC2=O)c2cccc(C3CN(C4CCN(C[C@H]5CC[C@H](n6cc(NC(=O)c7cnn8ccc(N9C[C@H]%10C[C@@H]9CO%10)nc78)c(C(F)F)n6)CC5)CC4(F)F)C3)c21 (some centres unmarked) [I-682] | > 200 nM | < 10 nM
6 | CN(c1cccc2c1n(C)c(=O)n2C1CCC(=O)NC1=O)C1CN(C[C@H]2CC[C@H](n3cc4cc(NC(=O)c5cccc(C(F)(F)F)n5)ncc4n3)CC2)C1 (some centres unmarked) [I-698] | > 200 nM | > 200 nM
7 | Cn1c(=O)n(C2CCC(=O)NC2=O)c2cccc(OC3CCN([C@H]4CC[C@H](n5cc6cc(NC(=O)c7cccc(C(F)(F)F)n7)ccc6n5)CC4)CC3(F)F)c21 (some centres unmarked) [I-754] | > 200 nM | > 200 nM
8 | Cn1c(=O)n(C2CCC(=O)NC2=O)c2cccc(N3CCN(C[C@H]4CC[C@H](n5cc6cc(NC(=O)c7cccc(C(F)F)n7)ncc6n5)CC4)CC3)c21 (some centres unmarked) [I-693] | > 200 nM | < 10 nM
9 | CN(CC1CCN(c2cccc3c2n(C)c(=O)n3C2CCC(=O)NC2=O)CC1)c1ccc(-n2cc(NC(=O)c3cnn4cccnc34)c(C(F)F)n2)cc1 (centres unmarked) [I-373] | > 200 nM | > 200 nM
10 | O=C1CCC(c2cncc3c(C#CCOC4CCN(C[C@H]5CC[C@H](n6cc(NC(=O)c7cnn8ccc(N9C[C@H]%10C[C@@H]9CO%10)nc78)c(C(F)F)n6)CC5)CC4)cccc23)C(=O)N1 (some centres unmarked) [I-249] | > 200 nM | > 200 nM
11 | CC(C)Oc1ccn2ncc(C(=O)Nc3cn([C@H]4CC[C@H](CN5CCN(CC#Cc6cccc7c6n(C)c(=O)n7C6CCC(=O)NC6=O)CC5)CC4)nc3C(F)F)c2n1 (some centres unmarked) [I-243] | > 200 nM | > 200 nM
12 | Cn1c(=O)n(C2CCC(=O)NC2=O)c2cccc(C#CCN3CCN(C[C@H]4CC[C@H](n5cc(NC(=O)c6cnn7ccc(C(C)(C)C)nc67)c(C(F)F)n5)CC4)CC3)c21 (some centres unmarked) [I-219] | > 200 nM | > 200 nM
13 | Cc1ccc(-c2nn([C@H]3CC[C@H](CN4CCC(OCC#Cc5cccc6c5n(C)c(=O)n6C5CCC(=O)NC5=O)CC4)CC3)cc2NC(=O)c2cnn3cccnc23)c(F)c1 (some centres unmarked) [I-171] | > 200 nM | 10 to 100 nM
14 | C[C@H]1CN(C[C@H]2CC[C@H](n3cc(NC(=O)c4cnn5ccc(N6C[C@H]7C[C@@H]6CO7)nc45)c(C(F)F)n3)CC2)CC[C@@H]1OCC#Cc1cccc2c1n(C)c(=O)n2C1CCC(=O)N(C)C1=O (some centres unmarked) [I-47] | > 200 nM | > 200 nM
15 | Cn1c(=O)n(C2CCC(=O)NC2=O)c2cccc(N3CCN(CC4CCN(C[C@H]5CC[C@H](n6cc(NC(=O)c7cnn8ccc(N9C[C@H]%10C[C@@H]9CO%10)nc78)c(C(F)F)n6)CC5)CC4)CC3)c21 (some centres unmarked) [I-163] | < 10 nM | > 200 nM
16 | Cn1c(=O)n(C2CCC(=O)NC2=O)c2cccc(N3CCN(C4CCN([C@H]5CC[C@H](n6cc(NC(=O)c7cnn8ccc(N9C[C@H]%10C[C@@H]9CO%10)nc78)c(C(F)F)n6)CC5)CC4)CC3)c21 (single isomer, unassigned) [I-201] | < 10 nM | > 200 nM
17 | Cn1c(=O)n(C2CCC(=O)NC2=O)c2cccc(N3CC(CN4CCN(C[C@H]5CC[C@H](n6cc(NC(=O)c7cnn8ccc(N9C[C@H]%10C[C@@H]9CO%10)nc78)c(C(F)F)n6)CC5)CC4)C3)c21 (some centres unmarked) [I-748] | > 200 nM | > 200 nM
18 | O=C1CCC(c2cccc3c(C#CCOC4CCN(C[C@H]5CC[C@H](n6cc(NC(=O)c7cnn8ccc(N9C[C@H]%10C[C@@H]9CO%10)nc78)c(C(F)F)n6)CC5)CC4)cccc23)C(=O)N1 (some centres unmarked) [I-248] | > 200 nM | 10 to 100 nM
19 | Cn1c(=O)n(C2CCC(=O)NC2=O)c2cccc(N3CCC(O[C@H]4CC[C@H](n5cc6cc(NC(=O)c7cccc(C(F)(F)F)n7)ncc6n5)CC4)C3)c21 (some centres unmarked) [I-793] | > 200 nM | > 200 nM

Row | SMILES | DC50 [1] | DC50 [2]
20 | CN(C[C@H]1CC[C@H](n2cc3cc(NC(=O)c4cccc(C(F)(F)F)n4)c([S+](C)[O-])cc3n2)CC1)C1CCN(c2cccc3c2n(C)c(=O)n3C2CCC(=O)NC2=O)CC1F (some centres unmarked) [I-561] | > 200 nM | > 200 nM
21 | COc1ccc2c(c1C#CCO[C@@H]1CCN(C[C@H]3CC[C@H](n4cc(NC(=O)c5cnn6ccc(N7C[C@H]8C[C@@H]7CO8)nc56)c(C(F)F)n4)CC3)C[C@H]1C)n(C)c(=O)n2C1CCC(=O)NC1=O (some centres unmarked) [I-64] | < 10 nM | > 200 nM
22 | Cn1c(=O)n(C2CCC(=O)NC2=O)c2cccc(C3CN(C[C@H]4CC[C@H](n5cc6cc(NC(=O)c7cccc(C(F)(F)F)n7)ccc6n5)CC4)C3)c21 (some centres unmarked) [I-609] | > 200 nM | > 200 nM
23 | Cn1c(=O)n(C2CCC(=O)NC2=O)c2cccc(C#CCOC3CCN(C[C@H]4CC[C@H](n5cc(NC(=O)c6cnn7ccc(N8CC9(COC9)C8)nc67)c(C(F)F)n5)CC4)CC3)c21 (some centres unmarked) [I-325] | > 200 nM | > 200 nM
24 | Cn1c(=O)n(C2CCC(=O)NC2=O)c2cccc(N3CC(CO[C@H]4CCN(C[C@H]5CC[C@H](n6cc(NC(=O)c7cnn8ccc(N9C[C@H]%10CC9CO%10)nc78)c(C(F)F)n6)CC5)C[C@H]4F)C3)c21 (some centres unmarked) [I-588] | > 200 nM | < 10 nM
25 | Cn1c(=O)n(C2CCC(=O)NC2=O)c2ccc(C3CN(C4CCN([C@H]5CC[C@H](n6cc(NC(=O)c7cnn8ccc(N9C[C@H]%10C[C@@H]9CO%10)nc78)c(C(F)F)n6)CC5)CC4(F)F)C3)c(F)c21 (some centres unmarked) [I-752] | > 200 nM | > 200 nM
26 | Cn1c(=O)n([C@H]2CCC(=O)NC2=O)c2cccc(C#CCN3CCN(C[C@H]4CC[C@H](n5cc(NC(=O)c6cnn7ccc(N8C[C@H]9C[C@@H]8CO9)nc67)c(C(F)F)n5)CC4)CC3)c21 (single isomer, unassigned) [I-72] | < 10 nM | > 200 nM
27 | Cn1c(=O)n(C2CCC(=O)NC2=O)c2cccc(C#COCC3CCN([C@H]4CC[C@H](n5cc(NC(=O)c6cnn7ccc(N8C[C@H]9C[C@@H]8CO9)nc67)c(C(F)F)n5)CC4)CC3)c21 (some centres unmarked) [I-341] | > 200 nM | > 200 nM
28 | O=C1CCC(n2c(=O)n(C3CC3)c3c(C#CCOC4CCN(C[C@H]5CC[C@H](n6cc(NC(=O)c7cnn8ccc(N9C[C@H]%10C[C@@H]9CO%10)nc78)c(C(F)F)n6)CC5)CC4)cccc32)C(=O)N1 (some centres unmarked) [I-65] | < 10 nM | > 200 nM
29 | CN(C[C@H]1CC[C@H](n2cc(NC(=O)c3cnn4ccc(N5CCS(=O)(=O)CC5)nc34)c(C(F)F)n2)CC1)C1CCN(c2cccc3c2n(C)c(=O)n3C2CCC(=O)NC2=O)CC1(F)F (some centres unmarked) [I-542] | > 200 nM | > 200 nM
30 | Cc1cccc(C(=O)Nc2cc3cn([C@H]4CC[C@H](CN5CC[C@@H](c6cccc7c6n(C)c(=O)n7C6CCC(=O)NC6=O)[C@H](F)C5)CC4)nc3cc2C(C)(C)O)n1 (some centres unmarked) [I-645] | > 200 nM | < 10 nM
31 | CN(C[C@H]1CC[C@H](n2cc3cc(NC(=O)c4cccc(C(F)(F)F)n4)c(C#N)cc3n2)CC1)C1CCN(c2cccc3c2n(C)c(=O)n3C2CCC(=O)NC2=O)CC1(F)F (some centres unmarked) [I-477] | > 200 nM | > 200 nM
32 | CC([C@H]1CC[C@H](n2cc(NC(=O)c3cnn4ccc(N5C[C@H]6C[C@@H]5CO6)nc34)c(C(F)F)n2)CC1)N1CCN(CC#Cc2cccc3c2n(C)c(=O)n3C2CCC(=O)NC2=O)CC1 (some centres unmarked) [I-194] | > 200 nM | > 200 nM
33 | Cn1c(=O)n(C2CCC(=O)NC2=O)c2cccc(C3=CCN(C[C@H]4CC[C@H](n5cc6cc(NC(=O)c7cccc(C(F)(F)F)n7)ccc6n5)CC4)CC3F)c21 (some centres unmarked) [I-706] | > 200 nM | 10 to 100 nM
34 | Cn1c(=O)n(C2CCC(=O)NC2=O)c2cccc(C3CCN(C[C@H]4CC[C@H](n5cc6cc(NC(=O)c7cccc(C(F)(F)F)n7)c(Cl)cc6n5)CC4)CC3F)c21 (some centres unmarked) [I-552] | > 200 nM | 10 to 100 nM
35 | O=C1CCN(c2cncc3cc(C4=CCN(C[C@H]5CC[C@H](n6cc7cc(NC(=O)c8cccc(C(F)(F)F)n8)ccc7n6)CC5)CC4(F)F)ccc23)C(=O)N1 [I-472] | > 200 nM | > 200 nM
36 | O=C1CCN(c2cncc3c(C#CCOC4CCN(C[C@H]5CC[C@H](n6cc(NC(=O)c7cnn8ccc(N9C[C@H]%10C[C@@H]9CO%10)nc78)c(C(F)F)n6)CC5)CC4)cccc23)C(=O)N1 [I-10] | < 10 nM | > 200 nM
37 | CN(C[C@H]1CC[C@H](n2cc(NC(=O)c3cnn4ccc(N5C6CCC5COC6)nc34)c(C(F)F)n2)CC1)C1CCN(c2cccc3c2n(C)c(=O)n3C2CCC(=O)NC2=O)CC1(F)F (some centres unmarked) [I-527] | > 200 nM | 10 to 100 nM
